# Experimental data from BigSolDB 2.1.
smiles,measurement,setting,value
CO/N=C1\C[C@]2(C[C@@H]3C[C@@H](C/C=C(\C)C[C@@H](C)/C=C/C=C4\CO[C@@H]5[C@H](O)C(C)=C[C@@H](C(=O)O3)[C@]45O)O2)O[C@H](/C(C)=C/C(C)C)[C@H]1C,solubility (mole fraction),"in ethanol, 278.15 K",0.0532
same,solubility (mole fraction),"in ethanol, 283.15 K",0.0674
same,solubility (mole fraction),"in ethanol, 288.15 K",0.0814
same,solubility (mole fraction),"in ethanol, 293.15 K",0.097
same,solubility (mole fraction),"in ethanol, 298.15 K",0.114
same,solubility (mole fraction),"in ethanol, 303.15 K",0.133
same,solubility (mole fraction),"in ethanol, 308.15 K",0.153
same,solubility (mole fraction),"in ethanol, 313.15 K",0.173
same,solubility (mole fraction),"in ethanol, 318.15 K",0.196
same,solubility (mole fraction),"in ethanol, 323.15 K",0.223
same,solubility (mole fraction),"in ethylene glycol, 278.15 K",0.00364
same,solubility (mole fraction),"in ethylene glycol, 283.15 K",0.0049
same,solubility (mole fraction),"in ethylene glycol, 288.15 K",0.00631
same,solubility (mole fraction),"in ethylene glycol, 293.15 K",0.00796
same,solubility (mole fraction),"in ethylene glycol, 298.15 K",0.00975
same,solubility (mole fraction),"in ethylene glycol, 303.15 K",0.0117
same,solubility (mole fraction),"in ethylene glycol, 308.15 K",0.0137
same,solubility (mole fraction),"in ethylene glycol, 313.15 K",0.0157
same,solubility (mole fraction),"in ethylene glycol, 318.15 K",0.0181
same,solubility (mole fraction),"in ethylene glycol, 323.15 K",0.021
same,solubility (mole fraction),"in isopropanol, 278.15 K",0.00799
same,solubility (mole fraction),"in isopropanol, 283.15 K",0.0107
same,solubility (mole fraction),"in isopropanol, 288.15 K",0.0139
same,solubility (mole fraction),"in isopropanol, 293.15 K",0.0178
same,solubility (mole fraction),"in isopropanol, 298.15 K",0.0211
same,solubility (mole fraction),"in isopropanol, 303.15 K",0.0253
same,solubility (mole fraction),"in isopropanol, 308.15 K",0.0296
same,solubility (mole fraction),"in isopropanol, 313.15 K",0.0346
same,solubility (mole fraction),"in isopropanol, 318.15 K",0.04
same,solubility (mole fraction),"in isopropanol, 323.15 K",0.0455
same,solubility (mole fraction),"in methanol, 278.15 K",0.0243
same,solubility (mole fraction),"in methanol, 283.15 K",0.0306
same,solubility (mole fraction),"in methanol, 288.15 K",0.0383
same,solubility (mole fraction),"in methanol, 293.15 K",0.0454
same,solubility (mole fraction),"in methanol, 298.15 K",0.0545
same,solubility (mole fraction),"in methanol, 303.15 K",0.0634
same,solubility (mole fraction),"in methanol, 308.15 K",0.0729
same,solubility (mole fraction),"in methanol, 313.15 K",0.0822
same,solubility (mole fraction),"in methanol, 318.15 K",0.0927
same,solubility (mole fraction),"in methanol, 323.15 K",0.105
same,solubility (mole fraction),"in water, 278.15 K",3.75e-06
same,solubility (mole fraction),"in water, 283.15 K",5.13e-06
same,solubility (mole fraction),"in water, 288.15 K",6.71e-06
same,solubility (mole fraction),"in water, 293.15 K",8.61e-06
same,solubility (mole fraction),"in water, 298.15 K",1.08e-05
same,solubility (mole fraction),"in water, 303.15 K",1.33e-05
same,solubility (mole fraction),"in water, 308.15 K",1.59e-05
same,solubility (mole fraction),"in water, 313.15 K",1.85e-05
same,solubility (mole fraction),"in water, 318.15 K",2.14e-05
same,solubility (mole fraction),"in water, 323.15 K",2.49e-05
